Measured values taken from patent US20210186982A1, “METHODS AND COMPOSITIONS FOR TREATING MELANOMA” (UNIVERSITE NICE SOPHIA ANTIPOLIS, priority 2017, published 2021).

Columns and labels:
A375DR = experiment: MTS conversion assay, melanoma cell proliferation; format: cell-based; settings: Homo sapiens, MET, BRAFV600E/CDKN2A*/?, resistance vemurafenib/ERKi, 48 h MTS, read-out: b-AP15 IC50
Procedure: (§1) Cell proliferation was measured by a MTS conversion assay using the CellTiter 96® Aqueous Non-Radioactive Cell Proliferation kit (Promega, Madison Wis.) according to the manufacturer instructions. Cells were seeded in 96-well plates (5×10^4 cells/well) and treated with different reagents for the indicated times and incubated at 37° C. with MTS reagent. The optical density of each sample at 490 nm was determined with a Multiskan FC plate reader (Thermo Fisher Scientific, Waltham, Mass. USA).

Mel1617R = experiment: MTS conversion assay, melanoma cell proliferation; format: cell-based; settings: Homo sapiens, MET, BRAF*/p53*/?, resistance dabrafenib, 48 h MTS, read-out: b-AP15 IC50
Procedure: as §1

Mel1617 = experiment: MTS conversion assay, melanoma cell proliferation; format: cell-based; settings: Homo sapiens, MET, BRAF*/p53*, resistance none, 48 h MTS, read-out: b-AP15 IC50
Procedure: as §1

Pt#1 patient cells = experiment: MTS conversion assay, patient melanoma cell proliferation; format: cell-based; settings: Homo sapiens; Patient cells Pt#1; MET; BRAF*; resistance none; 48 h MTS; read-out: b-AP15 IC50
Procedure: as §1

16 melanoma cell lines = experiment: MTS proliferation assay, collection of melanoma cell lines; format: cell-based; settings: Homo sapiens, range over 16 melanoma cell lines, read-out: IC50 of b-AP15 for 16 melanoma cell lines
Procedure: as §1

USP14 = target: T1, USP14 (Homo sapiens, UniProt P54578); experiment: DUB trap assay (HA-Ub-VS probe, anti-USP14 immunoblot); format: cell-based
T1 construct: endogenous in cells; host or cells: A375 (also 1205Lu, 501Mel, SKMel28, 451Lu) melanoma cells; cell lysates
Procedure: Cells were harvested, washed with PBS and pellets were dried then freezed (−80° C.) and subsequently lysed in ice-cold buffer containing 50 mM Tris (pH 7.4), 5 mM MgCl2, 250 mM sucrose, 1 mM DTT, 2 mM ATP, and 1 mM PMSF and mild sonication. Lysates were cleared by centrifugation, and 20 μg of protein extracts were incubated for 25 min at 37° C. with 2 μM HA-Ub-VS (Boston Biochem, Cambridge, Mass.). After boiling in reducing sample buffer, labelled cell lysates were subjected to immunoblot analysis as described above using the indicated antibodies.

12051u cells = experiment: Cell cycle / sub-G1 analysis by flow cytometry (PI); format: cell-based, human; settings: 24 h
Procedure: (§2) Cell cycle profiles and sub-G1 analysis were performed by flow cytometry analysis of propidium iodide (PI)-stained cells. Briefly, following permeabilization in icecold ethanol 70%, cells were stained with PI 40 μg/ml in PBS supplemented with RNAse A 100 μg/ml before analysis using a BD FACSCanto cytometer.

A375 cells [1] = experiment: as above; format: cell-based, human; settings: 24 h
Procedure: as §2

[2] = Annexin-V-FITC/7-AAD flow cytometry, cell viability; format: cell-based; settings: human, A375 cells; solvent 87%
Procedure: Cell death was evaluated by flow cytometry following staining with Annexin-V-FITC and 7-AAD (eBiosciences) as previously described 24.

4511u and 4511uR cells = experiment: Colony formation assay; format: cell-based, human
Procedure: Alternatively, cell growth was assessed by crystal violet staining on cells seeded in 24-well plates for the indicated time. After treatment, cells were fixed in PFA 3% during 20 min, washed with PBS 3 times and stained with crystal violet 0.4% in ethanol 20% for 30 min.

451Lu-R Luc+ cells = experiment: Melanoma xenograft in nude mice, tumor bioluminescence; format: in vivo; settings: 10 mgkg-1 i.p. every 3 days, vs vehicle
Procedure: All mouse experiments were carried out in accordance with the Institutional Animal Care and the local ethics committee. For human melanoma xenografts, 5-week-old female athymic (nu/nu) mice (Harlan) were subcutaneously injected with 1×106 451Lu-R BRAF inhibitor resistant melanoma cells engineered to express a luciferase reporter (451Lu-R Luc+ cells) in 100 μl of PBS. After 3 days, mice were injected every 3 days intraperitoneally with vehicle or 10 mgkg-1 b-AP15 in 90/1/9 mix of Labrafil/Tween 80/DMA. At the indicated time, mice were anesthetized and injected intraperitoneally with 50 mgkg-1 D-luciferin (Perkin Elmer) in PBS. Images were acquired using a Photon Imager (Biospace Lab) system and data analysed with the M3Vision software (Biospace Lab). Tumor growth was monitored and quantified using BLI. The total numbers of photons per second per steradian per square centimeter were recorded. For BLI plots, photon flux was calculated for each mouse by using a rectangular region of interest encompassing the thorax of the mouse in a prone position.

A375 cells [3] = experiment: ROS production (CM-H2DCFDA, flow cytometry); format: cell-based, human; settings: 2 μM b-AP15 for 30 min
Procedure: ROS levels were measured using the redox-sensitive dye CM-H2DCFDA (Thermo Fischer Scientific). After treatment, cells were stained with 10 μM CM-H2DCFDA in PBS for 30 min at 37° C. Cells were washed with PBS and resuspended in PBS 5 mM EDTA/1% BSA. ROS production was analysed using a MACSQuant® Analyzer 10 cytometer (Miltenyi Biotech).

[4] = system: K48-linked poly-ubiquitinated proteins; experiment: Immunoblot analysis of poly-ubiquitinated proteins in A375 cells; format: cell-based, human
Procedure: (§3) Melanoma cells were harvested as described before 6. Cells were lysed at 4° C. in RIPA buffer (Millipore) supplemented with Pierce™ Protease and Phosphatase Inhibitor Mini Tablets, and briefly sonicated. Cell lysates were cleared at 16,000 xg for 15 min at 4° C. Whole cell lysates were subjected to SDS-PAGE and immunoblot analysis as previously described 6.

ER stress response genes = experiment: qRT-PCR analysis of ER stress response genes; format: cell-based, human; settings: 2 μM b-AP15, 6 h and 24 h; 12051u cells
Procedure: Total RNA was extracted from cell samples using Nucleospin RNAII kit (Macherey-Nagel) and following the manufacturer's instructions. Recovered RNA samples were quantified using NanoDrop spectrophotometer ND1000 (Thermo Fisher Scientific). Reverse transcription was performed on 1 μg of total RNA in a volume of 20 μL using High capacity cDNA Reverse Transcription kit (Applied Biosystems) according to the manufacturer's instructions. Quantitative PCR was performed on 20 ng cDNA samples, in sealed 96-well microtiter plates using the Platinum® SYBR Green qPCR Supermix-UDG w/ROX (Life Technologies) with the StepOnePlus System (Applied Biosystems). Relative mRNA levels were determined using the 2ΔΔCT method and ACTB and PPIA as housekeeping genes. Values are the mean of duplicates and are representative of two independent experiments.

12051u and A375 cells = experiment: Immunoblot analysis of proliferation and apoptosis proteins; format: cell-based, human
Procedure: as §3

T1 sequence (P54578 whole entry): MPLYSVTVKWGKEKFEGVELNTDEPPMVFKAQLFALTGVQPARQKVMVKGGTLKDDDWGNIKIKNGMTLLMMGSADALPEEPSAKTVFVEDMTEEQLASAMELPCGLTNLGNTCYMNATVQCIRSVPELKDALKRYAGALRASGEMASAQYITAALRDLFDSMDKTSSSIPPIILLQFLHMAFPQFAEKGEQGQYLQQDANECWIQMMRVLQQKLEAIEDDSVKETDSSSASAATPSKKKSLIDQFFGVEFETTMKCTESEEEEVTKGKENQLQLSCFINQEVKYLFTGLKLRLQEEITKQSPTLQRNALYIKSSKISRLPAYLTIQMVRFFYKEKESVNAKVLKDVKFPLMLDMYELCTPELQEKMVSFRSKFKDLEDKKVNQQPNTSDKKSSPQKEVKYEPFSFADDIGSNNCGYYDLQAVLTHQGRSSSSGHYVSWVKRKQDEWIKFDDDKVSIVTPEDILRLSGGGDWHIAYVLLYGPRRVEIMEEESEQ

Cc1cc(C(=O)CN2CCCC2)c(C)n1-c1ccc(F)cc1 [b-AP15]
IC50 (A375DR): 1300 nM
IC50 (Mel1617R): 900 nM
IC50 (Mel1617): 1400 nM
IC50 (Pt#1 patient cells): 3400 nM
IC50 (16 melanoma cell lines): 400 to 2000 nM
USP14 activity in 12051u, 501Mel, SKMe128 and 4511u cells (USP14; 2 μM): efficiently blocked the activity of USP14
USP14 activity (USP14-Ub-HA) in A375 cells (USP14; A375 melanoma cells): efficiently blocked the activity of USP14 in a dose-dependent manner
sub-G1 cell population with reduced DNA content (12051u cells): 19%
sub-G1 cell population with reduced DNA content (A375 cells [1]): 11%
viability [2]: 52%
melanoma colony formation (4511u and 4511uR cells): suppressed melanoma colony formation
melanoma burden, bioluminescence analysis of tumor growth (451Lu-R Luc+ cells): marked decrease in melanoma burden
ROS production (A375 cells [3]): triggered a rapid burst of ROS
K48-linked poly-ubiquitinated proteins [4]: induced a rapid accumulation
ER stress response (CHOP, BIP/GRP78, GADD34, ATF4, spliced XBP1) (ER stress response genes): triggered a potent ER stress response
levels of p53 and of the cell cycle inhibitor p21 (12051u and A375 cells): increased
levels of phosphorylated Rb proteins (12051u and A375 cells): reducing
